Laboratory results taken from PMC4919643, “Intestinally-targeted TGR5 agonists equipped with quaternary ammonium have an improved hypoglycemic effect and reduced gallbladder filling effect” (Scientific Reports, 2016).
Where two headings read alike, the source gives them in different places.

Assays:
ICR mice = experiment: Oral glucose tolerance test (OGTT) in ICR mice; assay type: in vivo, mouse
Protocol: Blood glucose levels were measured berefore and after glucose loading. *p < 0.05, **p < 0.01 vs. control. Error bar indicateds SEM (standard error of the mean). […]
Oral glucose tolerance test (OGTT) and gallbladder filling assay in ICR mice. 100 […]
mice (n = 7-8) 90 min prior to the oral glucose load (4 g/kg). Blood glucose levels were measured via blood drops obtained by clipping the tail of the mice using an Accu-Chek Advantage II Glucose Monitor (Roche, Indianapolis, IN, USA) before compound dosing and 0, 15, 30, 60, and 120 min after the glucose load. The area under the concentration−time curve from 0 to 120 min (AUC0−120 min, Glu) of blood glucose after the glucose load was calculated by the trapezoidal rule. […]

ob/ob mice [1] = experiment: Gallbladder filling assay in ob/ob mice; assay type: in vivo, mouse; details: once a day oral dose 100 mg/kg (single dose)
Protocol: Figure 8 (A) Relative gallbladder area and (B) relative bile weight after once a day oral dose or 3-day treatment. […] 1 h after the final dose, mice were re-fed for 3 h and then the gallbladder was removed and the area measured using a vernier caliper. The relative gallbladder area was calculated from the length multiplied by the width of the gallbladder. Bile weight was measured using analytical balances. **p < 0.01; ***p < 0.001. Error bar indicates SEM.
(§1) Acute efficacy in ob/ob mice. 7-week-old ob/ob mice (male) were divided into three groups (n = 8) based on 2 h-fasted blood glucose. […]
mg/kg) and 0.25% CMC (control) was then orally administered to 2 h-fasted mice, and blood glucose was measured at 2, 4, 6, 8, 10, and 24 h after dosing. […]
then divided into 3 subgroup of different time point (n = 8-9 each subgroup). […] Concentrations of active GLP-1[7-36 amide] in the serum were measured using ELISA kit from Linco Research. […]
(§2) administered to 12 h-fasted ob/ob mice (n = 3 per time point). […] After centrifugation at 11000 rpm for 5 mins, the supernatant was analyzed by LC-MS/MS. […]
(§3) administered orally to overnight-fasted ob/ob mice (male, n = 3-6). 1 h after dosing, mice were refed for 3 hours, and then gallbladders were removed, and the area was measured using vernier caliper. The relative gallbladder area was calculated from the length multiplied by the width of the gallbladder. […]

mouse TGR5 = target: T1, mouse TGR5 (Mus musculus, UniProt Q80SS6); experiment: In vitro TGR5 reporter gene assay (mTGR5/CRE/HEK293)
T1 sequence (Q80SS6 1-329): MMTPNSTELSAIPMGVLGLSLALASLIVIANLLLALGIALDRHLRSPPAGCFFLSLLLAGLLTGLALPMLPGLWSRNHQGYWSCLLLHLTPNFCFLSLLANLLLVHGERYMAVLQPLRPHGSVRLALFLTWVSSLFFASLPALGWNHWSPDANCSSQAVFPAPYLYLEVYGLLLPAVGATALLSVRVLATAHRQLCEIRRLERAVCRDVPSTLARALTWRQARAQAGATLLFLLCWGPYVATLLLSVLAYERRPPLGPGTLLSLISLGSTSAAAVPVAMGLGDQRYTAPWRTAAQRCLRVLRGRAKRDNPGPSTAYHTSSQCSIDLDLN

ob/ob mice [2] = experiment: Acute efficacy (blood glucose) in ob/ob mice; assay type: in vivo, mouse; details: 100 mg/kg p.o. single dose
Protocol: Mice were refed at 6 h after dosing. *p < 0.05, **p < 0.01 vs. control. Error bar indicates SEM.
as §1
mg/kg) and 0.25% CMC (control) was then orally administered to 2 h-fasted mice, and blood glucose was measured at 2, 4, 6, 8, 10, and 24 h after dosing. The animals were refed at 6 h after dosing.
GLP-1 secretion in ob/ob mice. The ob/ob mice (female) were divided into 4 groups and […]
then divided into 3 subgroup of different time point (n = 8-9 each subgroup). All the animals were fasted for 6 hours before collecting blood samples at the indicated time points. At other times, animals were free accessed to water and food. […] Concentrations of active GLP-1[7-36 amide] in the serum were measured using ELISA kit from Linco Research. […]
as §2
as §3, with “gallbladder. The bile weight was measured using” for “gallbladder.”

[3] = Pharmacokinetics assay of 26a in ob/ob mice (plasma and intestinal tissue); assay type: in vivo, mouse
Protocol: The blood and intestinal tissue samples were collected before dosing or 2, 4, 6, 10, 16, and 24 h after dosing. Density of intestinal tissue was taken as 1 g/ml. Error bar indicates SEM. […]
Pharmacokinetics assay of 26a in ob/ob mice. […]
administered to 12 h-fasted ob/ob mice (n = 3 per time point). Blood and intestinal tissue samples were collected before dosing or 2 h, 4 h, 6 h, 10 h 16 h, 24 h after dosing. Blood samples were centrifuged at 11000 rpm for 5 min to isolate the plasma. 25 μL of the sample was mixed with 75 μL MeOH. After centrifugation at 11000 rpm for 5 mins, the supernatant was analyzed by LC-MS/MS.
The tissues were ground and homogenated with 0.9% NaCl solution (1:4, w/v), and then the homogenates were centrifuged at 12,000 rpm for 10 min at 4 °C. The supernatant was collected, and 100 μL aliquot of supernatant was spiked with 300 μL methanol, and then treated as the same fashion as plasma sample. […]

[4] = Solubility in water determined by LC-MS/MS; assay type: physicochemical
[5] = target: T2, farnesyl X receptor (FXR) (Homo sapiens, UniProt Q96RI1); experiment: FXR assay (LanthaScreen TR-FRET coactivator assay)
T2 sequence (Q96RI1 262-486 limits assumed): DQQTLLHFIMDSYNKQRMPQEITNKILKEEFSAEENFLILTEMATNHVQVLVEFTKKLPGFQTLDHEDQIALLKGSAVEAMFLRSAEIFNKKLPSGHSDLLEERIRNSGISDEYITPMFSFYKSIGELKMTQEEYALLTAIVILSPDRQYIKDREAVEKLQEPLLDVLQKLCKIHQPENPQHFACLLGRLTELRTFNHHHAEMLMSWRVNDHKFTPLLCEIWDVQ

With `CN(CC[N+](C)(C)C)C(=O)CCc1cc(Cl)c(Oc2ccsc2C(=O)N2CCN(C3CC3)c3ccccc32)cc1Cl` [Compound 26a] the “AUC0–120 min of blood glucose, signed change vs control (OGTT, Fig. 3B)” value (ICR mice; 100 mg/kg p.o.) was -18%, the “decrease of blood glucose AUC vs control (OGTT)” value (ICR mice; 100 mg/kg p.o. 1.5 h before glucose 4 g/kg) was 18% and the “bile weight vs control” value (ob/ob mice [1]) was “did not increase gallbladder area or bile weight significantly”. The “gallbladder area vs control” value (ob/ob mice [1]) was “did not increase gallbladder area or bile weight significantly”, the EC50 (mouse TGR5) was 0.71 nM and the “time post-dosing until which glucose-lowering effect was maintained” value (ob/ob mice [2]) was “at least 24 h”. The “time of Cmax in intestinal tissue” value ([3]; 100 mg/kg p.o. single dose) was 2 h, the “time of Cmax in plasma” value ([3]; 100 mg/kg p.o. single dose) was 2 h and the Cmax ([3]; male, mouse, colon, po, 100 mg/kg p.o., at 2 h, tissue density taken as 1 g/ml, read-out: Cmax in colon tissue) was 27 µg/mL. The Cmax ([3]; male, mouse, duodenum, po, 100 mg/kg p.o., at 2 h, tissue density taken as 1 g/ml, read-out: Cmax in duodenum tissue) was 136 µg/mL, the Cmax ([3]; male, mouse, ileum, po, 100 mg/kg p.o., at 2 h, tissue density taken as 1 g/ml, read-out: Cmax in ileum tissue) was 331 µg/mL and the concentration at 24 h ([3]; male, mouse, intestinal tissue, po, 100 mg/kg p.o. single dose, read-out: level in intestinal tissue at 24 h) was greater than 0.8 µg/mL. It also gave a Cmax ([3]; male, mouse, jejunum, po, 100 mg/kg p.o., at 2 h, tissue density taken as 1 g/ml, read-out: Cmax in jejunum tissue) of 92 µg/mL, a Cmax ([3]; male, mouse, plasma, po, 100 mg/kg p.o. single dose, read-out: Cmax in plasma) of 0.071 µg/mL and a concentration at 10 h ([3]; male, mouse, plasma, po, 100 mg/kg p.o. single dose, read-out: drug concentration in plasma after 10 h) of less than 0.01 µg/mL. For the same compound, the solubility [4] was 1800 µg/mL and the “concentration up to which activation of FXR was not observed” value [5] was greater than 100 µM.
